In ChEMBL document CHEMBL3297661, “1-Substituted-5-[(3,5-dinitrobenzyl)sulfanyl]-1H-tetrazoles and their isosteric analogs: A new class of selective antitubercular agents active against drug-susceptible and multidrug-resistant mycobacteria” (Eur J Med Chem, 2014):
In brackets after ≈: the same amount, converted by molar mass.

Key:
[1] = test system: Mycobacterium tuberculosis; experiment: Antimycobacterial activity against Mycobacterium tuberculosis H37Rv; type: functional
[2] = Cytotoxicity against MDCK2 cells assessed as reduction in cell viability after 48 hrs by MTT assay; type: cell-based; settings: Canis lupus familiaris, MDCK-II
[3] = Cytotoxicity against MDCK2 cells assessed as cell viability at 30 uM after 48 hrs by MTT assay; type: cell-based, Canis lupus familiaris, MDCK-II; settings: dog, read-out: Activity
Enterococcus faecalis [4] = experiment: Antibacterial activity against Enterococcus faecalis J 14365/08 after 48 hrs by broth microdilution method; type: functional; settings: J 14365/08, 48 h
Candida albicans [5] = experiment: Antifungal activity against Candida albicans ATCC 44859 after 24 hrs by broth microdilution method; type: functional; settings: ATCC 44859, 24 h
Staphylococcus aureus [6] = experiment: Antibacterial activity against methicillin-resistant Staphylococcus aureus H 5996/08 after 48 hrs by broth microdilution method; type: functional; settings: H 5996/08, 48 h
Mycobacterium kansasii [7] = experiment: Antimycobacterial activity against Mycobacterium kansasii CNCTC My 235/80 after 14 days by micromethod; type: functional; settings: CNCTC My 235/80, 336 h
Aspergillus fumigatus [8] = experiment: Antifungal activity against Aspergillus fumigatus 231 after 48 hrs by broth microdilution method; type: functional, organism-based; settings: Aspergillus fumigatus, 231, 48 h
Mycobacterium kansasii [9] = experiment: Antimycobacterial activity against Mycobacterium kansasii CNCTC My 235/80 after 21 days by micromethod; type: functional; settings: CNCTC My 235/80, 504 h
Klebsiella pneumoniae [10] = experiment: Antibacterial activity against Klebsiella pneumoniae D 11750/08 after 48 hrs by broth microdilution method; type: functional; settings: D 11750/08, 48 h
Candida tropicalis [11] = experiment: Antifungal activity against Candida tropicalis 156 after 24 hrs by broth microdilution method; type: functional; settings: Candida tropicalis, 156, 24 h
Staphylococcus aureus [12] = experiment: Antibacterial activity against Staphylococcus aureus ATCC 6538 after 24 hrs by broth microdilution method; type: functional; settings: ATCC 6538, 24 h
Mycobacterium kansasii [13] = experiment: Antimycobacterial activity against Mycobacterium kansasii CNCTC My 235/80 after 7 days by micromethod; type: functional; settings: CNCTC My 235/80, 168 h
[14] = test system: Trichophyton mentagrophytes; experiment: Antifungal activity against Trichophyton mentagrophytes 445 after 120 hrs by broth microdilution method; type: functional, organism-based; settings: Trichophyton mentagrophytes, 445, 120 h
[15] = test system: Trichophyton mentagrophytes; experiment: Antifungal activity against Trichophyton mentagrophytes 445 after 72 hrs by broth microdilution method; type: functional, organism-based; settings: Trichophyton mentagrophytes, 445, 72 h
Candida albicans [16] = experiment: Antifungal activity against Candida albicans ATCC 44859 after 48 hrs by broth microdilution method; type: functional; settings: ATCC 44859, 48 h
Mycobacterium avium [17] = experiment: Antimycobacterial activity against Mycobacterium avium CNCTC My 330/88 after 14 days by micromethod; type: functional; settings: CNCTC My 330/88, 336 h
Aspergillus fumigatus [18] = experiment: Antifungal activity against Aspergillus fumigatus 231 after 24 hrs by broth microdilution method; type: functional, organism-based; settings: Aspergillus fumigatus, 231, 24 h
[19] = Cytotoxicity against human HeLa cells assessed as cell viability at 30 uM after 48 hrs by MTT assay; type: cell-based; settings: read-out: Activity
HepG2 = experiment: Cytotoxicity against human HepG2 cells assessed as reduction in cell viability after 48 hrs by MTT assay; type: cell-based; settings: HepG2, 48 h
Enterococcus faecalis [20] = experiment: Antibacterial activity against Enterococcus faecalis J 14365/08 after 24 hrs by broth microdilution method; type: functional; settings: J 14365/08, 24 h
[21] = test system: Mycobacterium tuberculosis; experiment: Antimycobacterial activity against Mycobacterium tuberculosis CNCTC My 331/88 after 21 days by micromethod; type: functional; settings: CNCTC My 331/88, 504 h
Mycobacterium avium [22] = experiment: Antimycobacterial activity against Mycobacterium avium CNCTC My 330/88 after 21 days by micromethod; type: functional; settings: CNCTC My 330/88, 504 h
[23] = test system: Staphylococcus epidermidis; experiment: Antibacterial activity against Staphylococcus epidermidis H 6966/08 after 48 hrs by broth microdilution method; type: functional; settings: H 6966/08, 48 h
Mycobacterium kansasii [24] = experiment: Antimycobacterial activity against Mycobacterium kansasii 6509/96 after 7 days by micromethod; type: functional; settings: 6509/96, 168 h
Mycobacterium kansasii [25] = experiment: Antimycobacterial activity against Mycobacterium kansasii 6509/96 after 21 days by micromethod; type: functional; settings: 6509/96, 504 h
[26] = Cytotoxicity against human HuH7 cells assessed as reduction in cell viability after 48 hrs by MTT assay; type: cell-based; settings: Huh-7, 48 h
Lichtheimia corymbifera [27] = experiment: Antifungal activity against Absidia corymbifera 272 after 24 hrs by broth microdilution method; type: functional, organism-based; settings: Lichtheimia corymbifera, 272, 24 h
Pichia kudriavzevii [28] = experiment: Antifungal activity against Candida krusei E28 after 48 hrs by broth microdilution method; type: functional; settings: E28, 48 h
Lichtheimia corymbifera [29] = experiment: Antifungal activity against Absidia corymbifera 272 after 48 hrs by broth microdilution method; type: functional, organism-based; settings: Lichtheimia corymbifera, 272, 48 h
Escherichia coli [30] = experiment: Antibacterial activity against Escherichia coli ATCC 8739 after 24 hrs by broth microdilution method; type: functional; settings: ATCC 8739, ATCC 8739, 24 h
Staphylococcus aureus [31] = experiment: Antibacterial activity against Staphylococcus aureus ATCC 6538 after 48 hrs by broth microdilution method; type: functional; settings: ATCC 6538, 48 h
Staphylococcus aureus [32] = experiment: Antibacterial activity against methicillin-resistant Staphylococcus aureus H 5996/08 after 24 hrs by broth microdilution method; type: functional; settings: H 5996/08, 24 h
Klebsiella pneumoniae [33] = experiment: Antibacterial activity against extended spectrum beta-lactamase producing Klebsiella pneumoniae J 14368/08 after 48 hrs by broth microdilution method; type: functional; settings: J 14368/08, 48 h
HeLa = experiment: Cytotoxicity against human HeLa cells assessed as reduction in cell viability after 48 hrs by MTT assay; type: cell-based
Pseudomonas aeruginosa [34] = experiment: Antibacterial activity against Pseudomonas aeruginosa ATCC 9027 after 24 hrs by broth microdilution method; type: functional; settings: ATCC 9027, 24 h
Candida tropicalis [35] = experiment: Antifungal activity against Candida tropicalis 156 after 48 hrs by broth microdilution method; type: functional; settings: Candida tropicalis, 156, 48 h
Klebsiella pneumoniae [36] = experiment: Antibacterial activity against extended spectrum beta-lactamase producing Klebsiella pneumoniae J 14368/08 after 24 hrs by broth microdilution method; type: functional; settings: J 14368/08, 24 h
Trichosporon asahii [37] = experiment: Antifungal activity against Trichosporon asahii 1188 after 48 hrs by broth microdilution method; type: functional; settings: Trichosporon asahii, 1188, 48 h
Mycobacterium kansasii [38] = experiment: Antimycobacterial activity against Mycobacterium kansasii 6509/96 after 14 days by micromethod; type: functional; settings: 6509/96, 336 h
[39] = Cytotoxicity against human HuH7 cells assessed as cell viability at 30 uM after 48 hrs by MTT assay; type: cell-based, Huh-7; settings: read-out: Activity
Escherichia coli [40] = experiment: Antibacterial activity against Escherichia coli ATCC 8739 after 48 hrs by broth microdilution method; type: functional; settings: ATCC 8739, ATCC 8739, 48 h
[41] = test system: Mycobacterium tuberculosis; experiment: Antimycobacterial activity against Mycobacterium tuberculosis CNCTC My 331/88 after 14 days by micromethod; type: functional; settings: CNCTC My 331/88, 336 h
[42] = test system: Staphylococcus epidermidis; experiment: Antibacterial activity against Staphylococcus epidermidis H 6966/08 after 24 hrs by broth microdilution method; type: functional; settings: H 6966/08, 24 h
Klebsiella pneumoniae [43] = experiment: Antibacterial activity against Klebsiella pneumoniae D 11750/08 after 24 hrs by broth microdilution method; type: functional; settings: D 11750/08, 24 h
Trichosporon asahii [44] = experiment: Antifungal activity against Trichosporon asahii 1188 after 24 hrs by broth microdilution method; type: functional; settings: Trichosporon asahii, 1188, 24 h
[45] = Cytotoxicity against human HepG2 cells assessed as cell viability at 30 uM after 48 hrs by MTT assay; type: cell-based; settings: read-out: Activity
Nakaseomyces glabratus [46] = experiment: Antifungal activity against Candida glabrata 20/I after 24 hrs by broth microdilution method; type: functional
Pseudomonas aeruginosa [47] = experiment: Antibacterial activity against Pseudomonas aeruginosa ATCC 9027 after 48 hrs by broth microdilution method; type: functional; settings: ATCC 9027, 48 h
Nakaseomyces glabratus [48] = experiment: Antifungal activity against Candida glabrata 20/I after 48 hrs by broth microdilution method; type: functional
Pichia kudriavzevii [49] = experiment: Antifungal activity against Candida krusei E28 after 24 hrs by broth microdilution method; type: functional; settings: E28, 24 h

Question: With O=[N+]([O-])c1cn2c(n1)OC[C@@H](OCc1ccc(OC(F)(F)F)cc1)C2 [PRETOMANID] as the molecule, how does the MIC [1] read?
Answer: 0.11 µM (≈ 0.0395 µg/mL)

Question: What does the source list for O=[N+]([O-])c1cc(C[Se]c2nnnn2C2CCCCC2)cc([N+](=O)[O-])c1?
Answer: IC50 [2]: 19 µM; viability at 48 h, 30 µM [3]: 7%; IC95 (Enterococcus faecalis [4]): > 500 µM; IC80 (Candida albicans [5]): > 500 µM; IC95 (Staphylococcus aureus [6]): > 500 µM; MIC (Mycobacterium kansasii [7]): 1 µM (≈ 0.411 µg/mL); IC50 (Aspergillus fumigatus [8]): > 500 µM; MIC (Mycobacterium kansasii [9]): 2 µM (≈ 0.823 µg/mL); IC95 (Klebsiella pneumoniae [10]): > 500 µM; IC80 (Candida tropicalis [11]): > 500 µM; IC95 (Staphylococcus aureus [12]): > 500 µM; MIC (Mycobacterium kansasii [13]): 1 µM (≈ 0.411 µg/mL); IC50 [14]: > 500 µM; IC50 [15]: > 500 µM; IC80 (Candida albicans [16]): > 500 µM; MIC (Mycobacterium avium [17]): 32 µM (≈ 13.2 µg/mL); IC50 (Aspergillus fumigatus [18]): > 500 µM; viability at 48 h, 30 µM [19]: 66%; IC50 (HepG2): > 30 µM; IC95 (Enterococcus faecalis [20]): > 500 µM; MIC [21]: 2 µM (≈ 0.823 µg/mL); MIC (Mycobacterium avium [22]): 32 µM (≈ 13.2 µg/mL); IC95 [23]: > 500 µM; MIC (Mycobacterium kansasii [24]): 2 µM (≈ 0.823 µg/mL); MIC (Mycobacterium kansasii [25]): 4 µM (≈ 1.65 µg/mL); IC50 [26]: > 30 µM; IC50 (Lichtheimia corymbifera [27]): > 500 µM; IC80 (Pichia kudriavzevii [28]): > 500 µM; IC50 (Lichtheimia corymbifera [29]): > 500 µM; IC95 (Escherichia coli [30]): > 500 µM; IC95 (Staphylococcus aureus [31]): > 500 µM; IC95 (Staphylococcus aureus [32]): > 500 µM; IC95 (Klebsiella pneumoniae [33]): > 500 µM; IC50 (HeLa): > 30 µM; IC95 (Pseudomonas aeruginosa [34]): > 500 µM; IC80 (Candida tropicalis [35]): > 500 µM; IC95 (Klebsiella pneumoniae [36]): > 500 µM; IC80 (Trichosporon asahii [37]): > 500 µM; MIC (Mycobacterium kansasii [38]): 4 µM (≈ 1.65 µg/mL); viability at 48 h, 30 µM [39]: 125%; IC95 (Escherichia coli [40]): > 500 µM; MIC [41]: 1 µM (≈ 0.411 µg/mL); IC95 [42]: > 500 µM; IC95 (Klebsiella pneumoniae [43]): > 500 µM; IC80 (Trichosporon asahii [44]): > 500 µM; viability at 48 h, 30 µM [45]: 87%; IC80 (Nakaseomyces glabratus [46]): > 500 µM; IC95 (Pseudomonas aeruginosa [47]): > 500 µM; IC80 (Nakaseomyces glabratus [48]): > 500 µM; IC80 (Pichia kudriavzevii [49]): > 500 µM
